According to US8247211B2, “Glycopeptide antibiotics” (American Cyanamid Company, priority 2001, dated 2012):
Values after ≈ are worked out from the molar mass of the structure shown.

Columns and labels:
Test in all cases: In vitro antibacterial evaluation: minimum inhibitory concentration (MIC), broth dilution method
Type in all cases: cell-based
Enterococcus sp. = details: 18 hours at 35° C.
In short: (§1)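 NCCLS M7-A2 broth dilution; Muller-Hinton II […]; 5×10^5 CFU/mL; 64-0.06 μg/mL. MIC = lowest concentration with no growth.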

Escherichia coli = details: 18 hours at 35° C.
In short: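 Test strains, among them recent clinical isolates carrying methicillin, penicillin and/or vancomycin resistance, were inoculated at 5×10^5 CFU/mL. A broth dilution series spanning 64-0.06 μg/mL in Muller-Hinton II […] (NCCLS M7-A2) defined the MIC as the lowest growth-inhibiting concentration.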

Staphylococcus sp. = details: for MIC Staphylococcus aureus (ATCC 29213): strain ATCC 29213; for MIC Staphylococcus aureus (GC 1131): strain GC 1131; for MIC Staphylococcus aureus (GC 3051): strain GC 3051; for MIC Staphylococcus aureus (GC 3053): strain GC 3053; for MIC Staphylococcus aureus (GC 4541): strain GC 4541; for MIC Staphylococcus aureus (GC 4542): strain GC 4542; for MIC Staphylococcus aureus-SMITH (GC 4543): strain GC 4543; for MIC Staphylococcus aureus (GC 4544): strain GC 4544; for MIC Staphylococcus aureus (GC 4545): strain GC 4545; for MIC Staphylococcus haemolyticus (GC 4546): strain GC 4546; for MIC Coagulase Negative Staphylococcus (GC 4547): strain GC 4547; for MIC Coagulase Negative Staphylococcus (GC 4548): strain GC 4548; for MIC Coagulase Negative Staphylococcus (GC 4549): strain GC 4549; for MIC Coagulase Negative Staphylococcus (GC 4551): strain GC 4551
In short: as §1

Streptococcus sp. = details: 18 hours at 35° C.
In short: as §1

[1] = Enterococcus faecalis (ATCC 29212)
[2] = Enterococcus faecalis (GC 2242)
[3] = Enterococcus faecalis (GC 2691)
[4] = Enterococcus faecalis (GC 3059)
[5] = Enterococcus faecalis (GC 4552)
[6] = Enterococcus faecalis (GC 4553)
[7] = Enterococcus faecalis (GC 4554)
[8] = Enterococcus faecalis (GC 6189)
[9] = broth dilution, inoculum 5×10^5 CFU/mL
[10] = Streptococcus agalactiae (GC 4564)
[11] = Streptococcus pneumoniae (ATCC 6301)
[12] = Streptococcus pneumoniae (GC 1894)
[13] = Streptococcus pneumoniae (GC 4565)
[14] = Streptococcus pyogenes (GC 4563)

N=C1NCC(C(O)C2NC(=O)C(Cc3ccc(OC4OC(CO)C(OC5OC6COC(c7ccccc7)OC6C(O)C5O)C(O)C4O)cc3)NC(=O)C(CC3CCCCC3)NC(=O)CNC(=O)C(CO)NC(=O)C(C(O)C3CNC(=N)N3C3OC(CO)C(O)C(O)C3O)NC2=O)N1 (stereo not drawn) [Example 199, Cyclo[3-cyclohexylalanyl-O-[4-O-(4,6-O-benzylidenehexopyranosyl)hexopyranosyl]tyrosyl-3-(2-iminoimidazolidin-4-yl)seryl-3-(3-hexopyranosyl-2-iminoimidazolidin-4-yl)-seryl-serylglycyl]]
MIC Enterococcus avium (GC 4558) (Enterococcus sp.; Enterococcus avium (GC 4558)): 2 µg/mL (≈ 1.45 µM)
MIC Enterococcus faecalis (ATCC 29212) (Enterococcus sp.; [1]): 4 µg/mL (≈ 2.91 µM)
MIC Enterococcus faecalis (GC 2242) (Enterococcus sp.; [2]): 2 µg/mL (≈ 1.45 µM)
MIC Enterococcus faecalis (GC 2691) (Enterococcus sp.; [3]): 4 µg/mL (≈ 2.91 µM)
MIC Enterococcus faecalis (GC 3059) (Enterococcus sp.; [4]): 4 µg/mL (≈ 2.91 µM)
MIC Enterococcus faecalis (GC 4552) (Enterococcus sp.; [5]): 4 µg/mL (≈ 2.91 µM)
MIC Enterococcus faecalis (GC 4553) (Enterococcus sp.; [6]): 4 µg/mL (≈ 2.91 µM)
MIC Enterococcus faecalis (GC 4554) (Enterococcus sp.; [7]): 4 µg/mL (≈ 2.91 µM)
MIC Enterococcus faecalis (GC 6189) (Enterococcus sp.; [8]): 2 µg/mL (≈ 1.45 µM)
MIC Enterococcus faecium (GC 2243) (Enterococcus sp.; Enterococcus faecium (GC 2243)): 4 µg/mL (≈ 2.91 µM)
MIC Enterococcus faecium (GC 4556) (Enterococcus sp.; Enterococcus faecium (GC 4556)): 4 µg/mL (≈ 2.91 µM)
MIC Enterococcus faecium (GC 4557) (Enterococcus sp.; Enterococcus faecium (GC 4557)): 2 µg/mL (≈ 1.45 µM)
MIC Enterococcus avium (GC 4558) (Enterococcus sp.; [9]): 2 µg/mL (≈ 1.45 µM)
MIC Enterococcus faecalis (ATCC 29212) (Enterococcus sp.; [9]): 4 µg/mL (≈ 2.91 µM)
MIC Enterococcus faecalis (GC 2242) (Enterococcus sp.; [9]): 2 µg/mL (≈ 1.45 µM)
MIC Enterococcus faecalis (GC 2691) (Enterococcus sp.; [9]): 4 µg/mL (≈ 2.91 µM)
MIC Enterococcus faecalis (GC 3059) (Enterococcus sp.; [9]): 4 µg/mL (≈ 2.91 µM)
MIC Enterococcus faecalis (GC 4552) (Enterococcus sp.; [9]): 4 µg/mL (≈ 2.91 µM)
MIC Enterococcus faecalis (GC 4553) (Enterococcus sp.; [9]): 4 µg/mL (≈ 2.91 µM)
MIC Enterococcus faecalis (GC 4554) (Enterococcus sp.; [9]): 4 µg/mL (≈ 2.91 µM)
MIC Enterococcus faecalis (GC 6189) (Enterococcus sp.; [9]): 2 µg/mL (≈ 1.45 µM)
MIC Enterococcus faecium (GC 2243) (Enterococcus sp.; [9]): 4 µg/mL (≈ 2.91 µM)
MIC Enterococcus faecium (GC 4556) (Enterococcus sp.; [9]): 4 µg/mL (≈ 2.91 µM)
MIC Enterococcus faecium (GC 4557) (Enterococcus sp.; [9]): 2 µg/mL (≈ 1.45 µM)
MIC Escherichia coli (ATCC 25922) (Escherichia coli): 64 µg/mL (≈ 46.5 µM)
MIC Escherichia coli (GC 4559) (Escherichia coli): 32 µg/mL (≈ 23.3 µM)
MIC Escherichia coli (GC 4560) (Escherichia coli): 1 µg/mL (≈ 0.727 µM)
MIC Staphylococcus aureus (ATCC 29213) (Staphylococcus sp.): 2 µg/mL (≈ 1.45 µM)
MIC Staphylococcus aureus (GC 1131) (Staphylococcus sp.): 2 µg/mL (≈ 1.45 µM)
MIC Staphylococcus aureus (GC 3051) (Staphylococcus sp.): 1 µg/mL (≈ 0.727 µM)
MIC Staphylococcus aureus (GC 3053) (Staphylococcus sp.): 2 µg/mL (≈ 1.45 µM)
MIC Staphylococcus aureus (GC 4541) (Staphylococcus sp.): 2 µg/mL (≈ 1.45 µM)
MIC Staphylococcus aureus (GC 4542) (Staphylococcus sp.): 1 µg/mL (≈ 0.727 µM)
MIC Staphylococcus aureus-SMITH (GC 4543) (Staphylococcus sp.): 1 µg/mL (≈ 0.727 µM)
MIC Staphylococcus aureus (GC 4544) (Staphylococcus sp.): 2 µg/mL (≈ 1.45 µM)
MIC Staphylococcus aureus (GC 4545) (Staphylococcus sp.): 1 µg/mL (≈ 0.727 µM)
MIC Staphylococcus haemolyticus (GC 4546) (Staphylococcus sp.): 1 µg/mL (≈ 0.727 µM)
MIC Coagulase Negative Staphylococcus (GC 4547) (Staphylococcus sp.): 2 µg/mL (≈ 1.45 µM)
MIC Coagulase Negative Staphylococcus (GC 4548) (Staphylococcus sp.): 0.5 µg/mL (≈ 0.364 µM)
MIC Coagulase Negative Staphylococcus (GC 4549) (Staphylococcus sp.): 0.5 µg/mL (≈ 0.364 µM)
MIC Coagulase Negative Staphylococcus (GC 4551) (Staphylococcus sp.): 1 µg/mL (≈ 0.727 µM)
MIC Streptococcus agalactiae (GC 4564) (Streptococcus sp.; [10]): <0.12 µg/mL
MIC Streptococcus pneumoniae (ATCC 6301) (Streptococcus sp.; [11]): <0.12 µg/mL
MIC Streptococcus pneumoniae (GC 1894) (Streptococcus sp.; [12]): <0.12 µg/mL
MIC Streptococcus pneumoniae (GC 4565) (Streptococcus sp.; [13]): <0.12 µg/mL
MIC Streptococcus pyogenes (GC 4563) (Streptococcus sp.; [14]): <0.12 µg/mL
MIC Streptococcus agalactiae (GC 4564) (Streptococcus sp.; [9]): <0.12 µg/mL
MIC Streptococcus pneumoniae (ATCC 6301) (Streptococcus sp.; [9]): <0.12 µg/mL
MIC Streptococcus pneumoniae (GC 1894) (Streptococcus sp.; [9]): <0.12 µg/mL
MIC Streptococcus pneumoniae (GC 4565) (Streptococcus sp.; [9]): <0.12 µg/mL
MIC Streptococcus pyogenes (GC 4563) (Streptococcus sp.; [9]): <0.12 µg/mL

N=C1NCC(C(O)C2NC(=O)C(Cc3ccc(OC4OC(CO)C(OC5OC6COC(Cc7ccccc7)OC6C(O)C5O)C(O)C4O)cc3)NC(=O)C(CC3CCCCC3)NC(=O)CNC(=O)C(CO)NC(=O)C(C(O)C3CNC(=N)N3C3OC(CO)C(O)C(O)C3O)NC2=O)N1 (stereo not drawn) [Example 200, Cyclo[3-cyclohexylalanyl-O-[4-O-[4,6-O-phenethylidene-hexopyranosyl]hexopyranosyl]tyrosyl-3-(2-iminoimidazolidin-4-yl)seryl-3-(3-hexopyranosyl-2-iminoimidazolidin-4-yl)serylserylglycyl]]
MIC Enterococcus avium (GC 4558) (Enterococcus sp.; Enterococcus avium (GC 4558)): 4 µg/mL (≈ 2.88 µM)
MIC Enterococcus faecalis (ATCC 29212) (Enterococcus sp.; [1]): 4 µg/mL (≈ 2.88 µM)
MIC Enterococcus faecalis (GC 2242) (Enterococcus sp.; [2]): 0.5 µg/mL (≈ 0.36 µM)
MIC Enterococcus faecalis (GC 2691) (Enterococcus sp.; [3]): 4 µg/mL (≈ 2.88 µM)
MIC Enterococcus faecalis (GC 3059) (Enterococcus sp.; [4]): 2 µg/mL (≈ 1.44 µM)
MIC Enterococcus faecalis (GC 4552) (Enterococcus sp.; [5]): 2 µg/mL (≈ 1.44 µM)
MIC Enterococcus faecalis (GC 4553) (Enterococcus sp.; [6]): 4 µg/mL (≈ 2.88 µM)
MIC Enterococcus faecalis (GC 4554) (Enterococcus sp.; [7]): 4 µg/mL (≈ 2.88 µM)
MIC Enterococcus faecalis (GC 6189) (Enterococcus sp.; [8]): 2 µg/mL (≈ 1.44 µM)
MIC Enterococcus faecium (GC 2243) (Enterococcus sp.; Enterococcus faecium (GC 2243)): 4 µg/mL (≈ 2.88 µM)
MIC Enterococcus faecium (GC 4556) (Enterococcus sp.; Enterococcus faecium (GC 4556)): 4 µg/mL (≈ 2.88 µM)
MIC Enterococcus faecium (GC 4557) (Enterococcus sp.; Enterococcus faecium (GC 4557)): 2 µg/mL (≈ 1.44 µM)
MIC Enterococcus avium (GC 4558) (Enterococcus sp.; [9]): 4 µg/mL (≈ 2.88 µM)
MIC Enterococcus faecalis (ATCC 29212) (Enterococcus sp.; [9]): 4 µg/mL (≈ 2.88 µM)
MIC Enterococcus faecalis (GC 2242) (Enterococcus sp.; [9]): 0.5 µg/mL (≈ 0.36 µM)
MIC Enterococcus faecalis (GC 2691) (Enterococcus sp.; [9]): 4 µg/mL (≈ 2.88 µM)
MIC Enterococcus faecalis (GC 3059) (Enterococcus sp.; [9]): 2 µg/mL (≈ 1.44 µM)
MIC Enterococcus faecalis (GC 4552) (Enterococcus sp.; [9]): 2 µg/mL (≈ 1.44 µM)
MIC Enterococcus faecalis (GC 4553) (Enterococcus sp.; [9]): 4 µg/mL (≈ 2.88 µM)
MIC Enterococcus faecalis (GC 4554) (Enterococcus sp.; [9]): 4 µg/mL (≈ 2.88 µM)
MIC Enterococcus faecalis (GC 6189) (Enterococcus sp.; [9]): 2 µg/mL (≈ 1.44 µM)
MIC Enterococcus faecium (GC 2243) (Enterococcus sp.; [9]): 4 µg/mL (≈ 2.88 µM)
MIC Enterococcus faecium (GC 4556) (Enterococcus sp.; [9]): 4 µg/mL (≈ 2.88 µM)
MIC Enterococcus faecium (GC 4557) (Enterococcus sp.; [9]): 2 µg/mL (≈ 1.44 µM)
MIC Escherichia coli (ATCC 25922) (Escherichia coli): 32 µg/mL (≈ 23 µM)
MIC Escherichia coli (GC 4559) (Escherichia coli): 32 µg/mL (≈ 23 µM)
MIC Escherichia coli (GC 4560) (Escherichia coli): 1 µg/mL (≈ 0.72 µM)
MIC Staphylococcus aureus (ATCC 29213) (Staphylococcus sp.): 1 µg/mL (≈ 0.72 µM)
MIC Staphylococcus aureus (GC 1131) (Staphylococcus sp.): 2 µg/mL (≈ 1.44 µM)
MIC Staphylococcus aureus (GC 3051) (Staphylococcus sp.): 1 µg/mL (≈ 0.72 µM)
MIC Staphylococcus aureus (GC 3053) (Staphylococcus sp.): 2 µg/mL (≈ 1.44 µM)
MIC Staphylococcus aureus (GC 4541) (Staphylococcus sp.): 1 µg/mL (≈ 0.72 µM)
MIC Staphylococcus aureus (GC 4542) (Staphylococcus sp.): 1 µg/mL (≈ 0.72 µM)
MIC Staphylococcus aureus-SMITH (GC 4543) (Staphylococcus sp.): 1 µg/mL (≈ 0.72 µM)
MIC Staphylococcus aureus (GC 4544) (Staphylococcus sp.): 2 µg/mL (≈ 1.44 µM)
MIC Staphylococcus aureus (GC 4545) (Staphylococcus sp.): 1 µg/mL (≈ 0.72 µM)
MIC Staphylococcus haemolyticus (GC 4546) (Staphylococcus sp.): 1 µg/mL (≈ 0.72 µM)
MIC Coagulase Negative Staphylococcus (GC 4547) (Staphylococcus sp.): 2 µg/mL (≈ 1.44 µM)
MIC Coagulase Negative Staphylococcus (GC 4548) (Staphylococcus sp.): 1 µg/mL (≈ 0.72 µM)
MIC Coagulase Negative Staphylococcus (GC 4549) (Staphylococcus sp.): 1 µg/mL (≈ 0.72 µM)
MIC Coagulase Negative Staphylococcus (GC 4551) (Staphylococcus sp.): 2 µg/mL (≈ 1.44 µM)
MIC Streptococcus agalactiae (GC 4564) (Streptococcus sp.; [10]): 0.12 µg/mL (≈ 0.0864 µM)
MIC Streptococcus pneumoniae (ATCC 6301) (Streptococcus sp.; [11]): <0.06 µg/mL
MIC Streptococcus pneumoniae (GC 1894) (Streptococcus sp.; [12]): <0.06 µg/mL
MIC Streptococcus pneumoniae (GC 4565) (Streptococcus sp.; [13]): <0.06 µg/mL
MIC Streptococcus pyogenes (GC 4563) (Streptococcus sp.; [14]): <0.06 µg/mL
MIC Streptococcus agalactiae (GC 4564) (Streptococcus sp.; [9]): 0.12 µg/mL (≈ 0.0864 µM)
MIC Streptococcus pneumoniae (ATCC 6301) (Streptococcus sp.; [9]): <0.06 µg/mL
MIC Streptococcus pneumoniae (GC 1894) (Streptococcus sp.; [9]): <0.06 µg/mL
MIC Streptococcus pneumoniae (GC 4565) (Streptococcus sp.; [9]): <0.06 µg/mL
MIC Streptococcus pyogenes (GC 4563) (Streptococcus sp.; [9]): <0.06 µg/mL
